# Experimental data: patent US20260207765A1, “COVALENTLY-MODIFIED STEROID ACID-PEPTIDES HAVING ENHANCED STABILITY AND/OR BIOLOGICAL ACTIVITY” (priority 2022, published 2026)
# Positions of bridges follow the written chain, without caps; N, C: chain ends. Residues, ends and D or L forms follow the SMILES beside them. Chains are numbered I, II in the order given. *: point of attachment. Chenodeoxycholyl = C[C@H](CCC(=O)*)[C@H]1CC[C@H]2[C@@H]3[C@H](O)C[C@@H]4C[C@H](O)CC[C@]4(C)[C@H]3CC[C@]12C
# What was measured:
# [1] = system: EL4 lymphoma cells; assay: Apoptosis analysis / kill curve by flow cytometry (Annexin-V, PI); format: cell-based, mouse
# Experimental: (§1) Apoptosis analysis was conducted by flow-cytometry. Briefly, target cells were first treated then washed. Treated cells were then re-suspended in Annexin-V staining buffer prior to staining with Annexin-V and propidium iodine (PI). Fifteen minutes later, cells were washed prior to analysis using BD FACS™ Diva on CANTOII™.
# [2] = system: 4T1 breast cancer cells; assay: Apoptosis analysis by flow cytometry; format: cell-based; conditions: 95 and 190 μM
# Experimental: as §1
# [3] = system: B16 melanoma cells; assay: Apoptosis analysis by flow cytometry; format: cell-based; conditions: 95 and 190 μM
# Experimental: as §1
# [4] = system: CT-26 colon carcinoma cells; assay: Apoptosis analysis by flow cytometry; format: cell-based; conditions: 95 and 190 μM
# Experimental: as §1
# [5] = system: E0771 breast cancer cells; assay: Apoptosis analysis by flow cytometry; format: cell-based; conditions: 95 and 190 μM
# Experimental: as §1
# [6] = system: JIMT-1 breast cancer cells; assay: Cytotoxicity of steroid acid-peptide conjugates in JIMT-1 cells; format: cell-based; conditions: 6.4 μM
# Experimental: as §1
# 50 mg of CDCA-C-SV40 monomers (or other steroid acid-peptide monomers) were resuspended in 200-500 μL of DMSO. 10 eq of N,N-Diisopropylethylamine (DIPEA) was added to the mixture and incubated in a thermomixer at 37° C. with agitation (1000 rpm) overnight, enabling dimerization of the monomers via their N-terminal cysteine thiol groups to produce (CDCA-C-SV40)2 or other dimers. The samples were then analyzed by UPLC-MS to evaluate dimer formation efficiency. Cell toxicity was evaluated via a Cell Toxicity assay (PrestoBlue™).
# [7] = Stability testing (impurities by HPLC); format: physicochemical
# Excerpt: GMP synthesis of the CDCA-C-SV40 monomer yielded a white powder and the results of initial stability testing is summarized below:
# As shown above, two main impurities were detected by HPLC relating to the reactivity of the free thiol group of the CDCA-C-SV40 monomer, namely impurities resulting from oxidation of the thiol group (Impurity A) and the formation an intermolecular disulfide bond via the thiol groups of two CDCA-C-SV40 monomers, producing a (CDCA-C-SV40)2 dimer (Impurity B).
# To attempt to improve stability, the synthesis protocol of CDCA-C-SV40 was modified to produce the conjugate directly in its dimerized form (Impurity B). […] At 25° C., total impurities rose only slightly from 1.6% at Day 0 to 2.1% after 3 months. At 40° C., total impurities rose from 1.6% at Day 0 to 1.7% after 5 days, 2.4% after 10 days, and to 3.7% after 30 days.
# [8] = system: murine MSCs; assay: Maximum tolerated dose on murine MSCs over 24 h; format: cell-based; conditions: 50 μM
# [9] = system: wild-type MSC and B3Z reporter system; assay: Antigen cross-presentation, wild-type MSC and B3Z reporter system; conditions: 100 μM
smiles,measurement,setting,value
CC(C)[C@H](NC(=O)[C@H](CCCCN)NC(=O)[C@H](CCCNC(=N)N)NC(=O)[C@H](CCCCN)NC(=O)[C@H](CCCCN)NC(=O)[C@H](CCCCN)NC(=O)[C@@H]1CCCN1C(=O)CNC(=O)[C@H](Cc1ccc(O)cc1)NC(=O)CNC(=O)[C@H](CSSC[C@H](NC(=O)CC[C@@H](C)[C@H]1CC[C@H]2[C@@H]3[C@H](O)C[C@@H]4C[C@H](O)CC[C@]4(C)[C@H]3CC[C@]12C)C(=O)NCC(=O)N[C@@H](Cc1ccc(O)cc1)C(=O)NCC(=O)N1CCC[C@H]1C(=O)N[C@@H](CCCCN)C(=O)N[C@@H](CCCCN)C(=O)N[C@@H](CCCCN)C(=O)N[C@@H](CCCNC(=N)N)C(=O)N[C@@H](CCCCN)C(=O)N[C@H](C(=O)NCC(=O)NCC(=O)O)C(C)C)NC(=O)CC[C@@H](C)[C@H]1CC[C@H]2[C@@H]3[C@H](O)C[C@@H]4C[C@H](O)CC[C@]4(C)[C@H]3CC[C@]12C)C(=O)NCC(=O)NCC(=O)O [(CDCA-C-SV40)2] (I: Chenodeoxycholyl-CGYGPKKKRKVGG-OH / II: Chenodeoxycholyl-CGYGPKKKRKVGG-OH; disulfide I:1-II:1),cytotoxicity,[1]; 95 and 190 μM,potent cytotoxicity
same,EC50,"[1]; EL4 lymphoma cells, flow cytometry, read-out: EC50 (cell death / kill curve)",3.2 µM
same,cytotoxicity,[2],potent cytotoxicity
same,cytotoxicity,[3],potent cytotoxicity
same,cytotoxicity,[4],potent cytotoxicity
same,cytotoxicity,[5],potent cytotoxicity
same,cytotoxicity,[6],potent cytotoxicity
same,stability of dimer compared with corresponding monomer,[7],markedly higher stability
same,MSCs growth,[8],diminished but was still present
same,cell death of MSCs,[9],significant cell death
